From ChEMBL document CHEMBL3885861, “Open TG-GATES”

Species: Rattus norvegicus
Experiment: Open TG-GATES - Regimen: Daily Repeat
Assay type: toxicity, organism-based, Sprague-Dawley
Set-up: regimen Daily Repeat, gender Male, age 6 weeks
Conditions: in vivo, po, 0 mg/kg, route gavage, dose level Control; for APTT / Bas / Eos / Fbg / Hb / Ht / Lym / MCH / MCHC / MCV / Mono / Neu / PT / Plat / RBC / Ret / WBC: tissue Blood; for KIDNEY_L / KIDNEY_R / KIDNEY_TOTAL: tissue Kidney; for LIVER: tissue Liver; for A/G / ALP / ALT / AST / BUN / CRE / Ca / Cl / DBIL / GLC / IP / K / LDH / Na / PL / RALB / TBIL / TC / TG / TP / gamma-GTP: tissue Plasma

**Q.** Which results are given for `CN/C(=N/CCSCc1nc[nH]c1C)NC#N` [CIMETIDINE]?
**A.** TERMINAL_BW (72 h, time 3 day): 226.2 g; APTT (72 h, time 3 day): 20.3 s; Bas (72 h, time 3 day): 0.4%; Eos (72 h, time 3 day): 0.6%; Fbg (72 h, time 3 day): 220.2 mg/dL; Hb (72 h, time 3 day): 13.5 g/dL; Ht (72 h, time 3 day): 40.5%; Lym (72 h, time 3 day): 84.6%; MCH (72 h, time 3 day): 21 pg; MCHC (72 h, time 3 day): 33.4%; MCV (72 h, time 3 day): 63.1 fL; Mono (72 h, time 3 day): 2.2%; Neu (72 h, time 3 day): 11.2%; PT (72 h, time 3 day): 12.7 s; Plat (72 h, time 3 day): 132.2 x10_4/uL; RBC (72 h, time 3 day): 642.2 x10_4/ul; Ret (72 h, time 3 day): 6.3%; WBC (72 h, time 3 day): 102.1 x10_2/uL; KIDNEY_L (72 h, time 3 day): 1 g; KIDNEY_R (72 h, time 3 day): 1 g; KIDNEY_TOTAL (72 h, time 3 day): 2 g; LIVER (72 h, time 3 day): 10.7 g; A/G (72 h, time 3 day): 1.7; ALP (72 h, time 3 day): 1069.6 IU/L; ALT (72 h, time 3 day): 36.6 IU/L; AST (72 h, time 3 day): 71 IU/L; BUN (72 h, time 3 day): 14.4 mg/dL; CRE (72 h, time 3 day): 0.4 mg/dL; Ca (72 h, time 3 day): 10.7 mg/dL; Cl (72 h, time 3 day): 102.8 meq/L; DBIL (72 h, time 3 day): 0.1 mg/dL; GLC (72 h, time 3 day): 198.2 mg/dL; IP (72 h, time 3 day): 7.1 mg/dL; K (72 h, time 3 day): 3.7 meq/L; LDH (72 h, time 3 day): 150 IU/L; Na (72 h, time 3 day): 141.2 meq/L; PL (72 h, time 3 day): 158 mg/dL; RALB (72 h, time 3 day): 3.5 g/dL; TBIL (72 h, time 3 day): 0.2 mg/dL; TC (72 h, time 3 day): 75.8 mg/dL; TG (72 h, time 3 day): 103 mg/dL; TP (72 h, time 3 day): 5.7 g/dL; gamma-GTP (72 h, time 3 day): 1 IU/L; TERMINAL_BW ([…], time 7 day): 261.3 g; TERMINAL_BW ([…], time 14 day): 315.1 g; TERMINAL_BW ([…], time 28 day): 384.7 g; APTT ([…], time 7 day): 18.7 s; Bas ([…], time 7 day): 0.2%; Eos ([…], time 7 day): 0.6%; Fbg ([…], time 7 day): 228 mg/dL; Hb ([…], time 7 day): 14 g/dL; Ht ([…], time 7 day): 41.6%; Lym ([…], time 7 day): 80%; MCH ([…], time 7 day): 21.5 pg; MCHC ([…], time 7 day): 33.5%; MCV ([…], time 7 day): 64.2 fL; Mono ([…], time 7 day): 2.2%; Neu ([…], time 7 day): 15%; PT ([…], time 7 day): 12.1 s; Plat ([…], time 7 day): 129.9 x10_4/uL; RBC ([…], time 7 day): 649 x10_4/ul; Ret ([…], time 7 day): 5.8%; WBC ([…], time 7 day): 117.4 x10_2/uL; APTT ([…], time 14 day): 18.6 s; Bas ([…], time 14 day): 0%; Eos ([…], time 14 day): 0.8%; Fbg ([…], time 14 day): 218.6 mg/dL; Hb ([…], time 14 day): 14.3 g/dL; Ht ([…], time 14 day): 43.5%; Lym ([…], time 14 day): 79.2%; MCH ([…], time 14 day): 20 pg; MCHC ([…], time 14 day): 33%; MCV ([…], time 14 day): 60.7 fL; Mono ([…], time 14 day): 2.8%; Neu ([…], time 14 day): 16.8%; PT ([…], time 14 day): 12.1 s; Plat ([…], time 14 day): 129.1 x10_4/uL; RBC ([…], time 14 day): 717.8 x10_4/ul; Ret ([…], time 14 day): 4.6%; WBC ([…], time 14 day): 120.6 x10_2/uL; APTT ([…], time 28 day): 20.4 s; Bas ([…], time 28 day): 0%; Eos ([…], time 28 day): 1.2%; Fbg ([…], time 28 day): 205.8 mg/dL; Hb ([…], time 28 day): 15.1 g/dL; Ht ([…], time 28 day): 44.2%; Lym ([…], time 28 day): 79.2%; MCH ([…], time 28 day): 19.2 pg; MCHC ([…], time 28 day): 34.1%; MCV ([…], time 28 day): 56.4 fL; Mono ([…], time 28 day): 2.2%; Neu ([…], time 28 day): 16.6%; PT ([…], time 28 day): 12.9 s; Plat ([…], time 28 day): 99.1 x10_4/uL; RBC ([…], time 28 day): 784 x10_4/ul; Ret ([…], time 28 day): 2.6%; WBC ([…], time 28 day): 121.2 x10_2/uL; KIDNEY_L ([…], time 7 day): 1.1 g; KIDNEY_R ([…], time 7 day): 1.1 g; KIDNEY_TOTAL ([…], time 7 day): 2.1 g; KIDNEY_L ([…], time 14 day): 1.3 g; KIDNEY_R ([…], time 14 day): 1.2 g; KIDNEY_TOTAL ([…], time 14 day): 2.5 g; KIDNEY_L ([…], time 28 day): 1.5 g; KIDNEY_R ([…], time 28 day): 1.5 g; KIDNEY_TOTAL ([…], time 28 day): 2.9 g; LIVER ([…], time 7 day): 12.5 g; LIVER ([…], time 14 day): 14.1 g; LIVER ([…], time 28 day): 15.5 g; A/G ([…], time 7 day): 1.5; ALP ([…], time 7 day): 1067.6 IU/L; ALT ([…], time 7 day): 33.2 IU/L; AST ([…], time 7 day): 62.4 IU/L; BUN ([…], time 7 day): 16.6 mg/dL; CRE ([…], time 7 day): 0.4 mg/dL; Ca ([…], time 7 day): 10.7 mg/dL; Cl ([…], time 7 day): 103.2 meq/L; DBIL ([…], time 7 day): 0.1 mg/dL; GLC ([…], time 7 day): 236.6 mg/dL; IP ([…], time 7 day): 8 mg/dL; K ([…], time 7 day): 3.9 meq/L; LDH ([…], time 7 day): 165.2 IU/L; Na ([…], time 7 day): 141.2 meq/L; PL ([…], time 7 day): 156.4 mg/dL; RALB ([…], time 7 day): 3.4 g/dL; TBIL ([…], time 7 day): 0.2 mg/dL; TC ([…], time 7 day): 73.6 mg/dL; TG ([…], time 7 day): 138.8 mg/dL; TP ([…], time 7 day): 5.7 g/dL; gamma-GTP ([…], time 7 day): 1 IU/L; A/G ([…], time 14 day): 1.4; ALP ([…], time 14 day): 861.4 IU/L; ALT ([…], time 14 day): 41.4 IU/L; AST ([…], time 14 day): 72.8 IU/L; BUN ([…], time 14 day): 17 mg/dL; CRE ([…], time 14 day): 0.4 mg/dL; Ca ([…], time 14 day): 10.6 mg/dL; Cl ([…], time 14 day): 102.6 meq/L; DBIL ([…], time 14 day): 0.1 mg/dL; GLC ([…], time 14 day): 215.2 mg/dL; IP ([…], time 14 day): 7.4 mg/dL; K ([…], time 14 day): 4.1 meq/L; LDH ([…], time 14 day): 169.6 IU/L; Na ([…], time 14 day): 141.4 meq/L; PL ([…], time 14 day): 155.6 mg/dL; RALB ([…], time 14 day): 3.4 g/dL; TBIL ([…], time 14 day): 0.2 mg/dL; TC ([…], time 14 day): 70.8 mg/dL; TG ([…], time 14 day): 168.4 mg/dL; TP ([…], time 14 day): 5.9 g/dL; gamma-GTP ([…], time 14 day): 1 IU/L; A/G ([…], time 28 day): 1.2; ALP ([…], time 28 day): 772.6 IU/L; ALT ([…], time 28 day): 31 IU/L; AST ([…], time 28 day): 59.6 IU/L; BUN ([…], time 28 day): 16.2 mg/dL; CRE ([…], time 28 day): 0.5 mg/dL; Ca ([…], time 28 day): 10.1 mg/dL; Cl ([…], time 28 day): 102.4 meq/L; DBIL ([…], time 28 day): 0.1 mg/dL; GLC ([…], time 28 day): 235.6 mg/dL; IP ([…], time 28 day): 6.6 mg/dL; K ([…], time 28 day): 3.6 meq/L; LDH ([…], time 28 day): 151.6 IU/L; Na ([…], time 28 day): 140.6 meq/L; PL ([…], time 28 day): 137.4 mg/dL; RALB ([…], time 28 day): 3.3 g/dL; TBIL ([…], time 28 day): 0.2 mg/dL; TC ([…], time 28 day): 61.8 mg/dL; TG ([…], time 28 day): 119.8 mg/dL; TP ([…], time 28 day): 6 g/dL; gamma-GTP ([…], time 28 day): 1 IU/L
